Common to all, as to assay type: in vivo
For assay [1], the system named is Alopecurus myosuroides (ALOMY). Briefly: Pre-emergence biological efficacy (percentage damage). The conditions noted are these: dose 1,000 g/ha, evaluated after 13 days, 100=total damage, 0=no damage; for pest or weed control at 1000 g/ha: Alopecurus myosuroides, 312 h. An outline of the steps:
(§1)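 In this pre-emergence test, pots of standard soil sown with seed are treated after one day of glasshouse cultivation using compound formulated in acetone/water (50:50) containing 0.5% Tween 20, dosed at 250 or 1000 g/ha. Growth continues at 24/16 °C day/night with 14 h light and 65% humidity, and damage is rated after 13 days.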

The test system of assay [2] is Amaranthus retoflexus (AMARE). The assay is described as above. The conditions noted are these: dose 1,000 g/ha, evaluated after 13 days, 100=total damage, 0=no damage; for pest or weed control at 1000 g/ha: Amaranthus retroflexus, 312 h. An outline of the steps:
as §1

Assay [3] has as its system Echinochloa crus-galli (ECHCG). The assay is described as above. The conditions noted are these: dose 1,000 g/ha, evaluated after 13 days, 100=total damage, 0=no damage; for pest or weed control at 1000 g/ha: Echinochloa crus-galli, 312 h. An outline of the steps:
as §1

The subject of assay [4] is Ipomea hederaceae (IPOHE). The description is as above. The conditions noted are these: dose 1,000 g/ha, evaluated after 13 days, 100=total damage, 0=no damage; for pest or weed control at 1000 g/ha: Ipomoea hederacea, 312 h. An outline of the steps:
as §1

The test system of assay [5] is Setaria faberi (SETFA). Described as above. The conditions noted are these: dose 1,000 g/ha, evaluated after 13 days, 100=total damage, 0=no damage; for pest or weed control at 1000 g/ha: Setaria faberi, 312 h. An outline of the steps:
as §1

Assay [6] relates to Solanum nigrum (SOLNI). Described as above. The conditions noted are these: dose 1,000 g/ha, evaluated after 13 days, 100=total damage, 0=no damage; for pest or weed control at 1000 g/ha: Solanum nigrum, 312 h. An outline of the steps:
as §1

The subject of assay [7] is Alopecurus myosuroides (ALOMY). Briefly: Post-emergence biological efficacy (percentage damage). The conditions noted are these: dose 1,000 g/ha, evaluated after 13 days, 100=total damage, 0=no damage; for pest or weed control at 1000 g/ha: Alopecurus myosuroides, 312 h. An outline of the steps:
(§2)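 Seedlings grown 8 days in soil in a glasshouse (24/16 °C day/night, 14 h light, 65% humidity), then sprayed with compound in acetone/water (50:50) with 0.5% Tween 20 at 250 or 1000 g/ha. Damage scored visually after 13 days (0 = none, 100 = total).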

Assay [8] relates to Amaranthus retoflexus (AMARE). The assay is described as above. The conditions noted are these: dose 1,000 g/ha, evaluated after 13 days, 100=total damage, 0=no damage; for pest or weed control at 1000 g/ha: Amaranthus retroflexus, 312 h. An outline of the steps: as §2
Assay [9] relates to Echinochloa crus-galli (ECHCG). The description is as above. The conditions noted are these: dose 1,000 g/ha, evaluated after 13 days, 100=total damage, 0=no damage; for pest or weed control at 1000 g/ha: Echinochloa crus-galli, 312 h. An outline of the steps:
as §2

Assay [10] deals with Ipomea hederaceae (IPOHE). The assay is described as above. The conditions noted are these: dose 1,000 g/ha, evaluated after 13 days, 100=total damage, 0=no damage; for pest or weed control at 1000 g/ha: Ipomoea hederacea, 312 h. An outline of the steps: as §2
For assay [11], the system named is Setaria faberi (SETFA). The description is as above. The conditions noted are these: dose 1,000 g/ha, evaluated after 13 days, 100=total damage, 0=no damage; for pest or weed control at 1000 g/ha: Setaria faberi, 312 h. An outline of the steps:
as §2

For assay [12], the system named is Solanum nigrum (SOLNI). The description is as above. The conditions noted are these: dose 1,000 g/ha, evaluated after 13 days, 100=total damage, 0=no damage; for pest or weed control at 1000 g/ha: Solanum nigrum, 312 h. An outline of the steps: as §2

Regarding `C=CCOC(=O)c1nc(-c2ccc(Cl)c(N(C)C)c2F)nc(N)c1C=C` [Compound 33-395, 4-Amino-2-(4-chloro-3-dimethylamino-2-fluorophenyl)-5-ethenyl-6-(prop-2-enyloxy)carbonyl-pyrimidine], the pest or weed control (as a rule, how far the test organism was held down) at 1000 g/ha was 60% in assay [1]; 100% in assay [2]; 90% in assay [3]; 30% in assay [4]; 80% in the assay on Setaria faberi (SETFA) [5]; 100% with Solanum nigrum (SOLNI) [6]. In addition, the pest or weed control at 1000 g/ha in assay [7] worked out at 70%; in assay [8], 100%; in [9] it was 100%; in assay [10], 30%; with Setaria faberi (SETFA) [11], 100%; in the assay with Solanum nigrum (SOLNI) [12] it was 100%.
For the compound `C=Cc1c(C(=O)OC)nc(C2CC2)nc1S(C)(=O)=O` [Compound 2-402, 2-cyclopropyl-5-ethenyl-6-methoxycarbonyl-4-methylsulphonyl-pyrimidine], the pest or weed control at 1000 g/ha (in assay [1]; in assay [2]; in assay [3]; in [4]; in the assay on Setaria faberi (SETFA) [5]; in the assay on Solanum nigrum (SOLNI) [6]) was 0% in each case. For the same compound, the pest or weed control at 1000 g/ha in [7] amounted to 0%; in assay [8], 0%; in assay [9], 0%; in [10], 50%; with Setaria faberi (SETFA) [11] it was 0%; in the assay on Solanum nigrum (SOLNI) [12], 20%.
Take `COC(=O)c1nc(-c2ccc(Cl)c(OC)c2F)nc(N)c1C` [Compound 27-41]: the pest or weed control at 1000 g/ha amounted to 30% in assay [1]; 50% in [2]; 20% in [3]; 90% in assay [4]; 10% in the assay on Setaria faberi (SETFA) [5]; 80% in the assay on Solanum nigrum (SOLNI) [6]. The pest or weed control at 1000 g/ha amounted to 30% in [7]; 100% in assay [8]; 50% in [9]; 60% in assay [10]; 80% with Setaria faberi (SETFA) [11]; 80% in the assay with Solanum nigrum (SOLNI) [12].
On to `C=Cc1c(N)nc(-c2ccc(Cl)c(N(C)C)c2F)nc1C(=O)OCCOCCCC` [Compound 33-397], for which the pest or weed control at 1000 g/ha in assay [1] came out at 80%; in [2], 100%; in assay [3] it was 100%; in [4], 50%; in the assay on Setaria faberi (SETFA) [5], 90%; in the assay with Solanum nigrum (SOLNI) [6] it was 100%. The pest or weed control at 1000 g/ha in assay [7] is 80%; in assay [8], 100%; in [9] it was 90%; in [10], 80%; with Setaria faberi (SETFA) [11] it was 90%; in the assay on Solanum nigrum (SOLNI) [12] it was 90%.
On to `C=Cc1c(N)nc(-c2ccc(Cl)c(N(C)C)c2F)nc1C(=O)OCC(C)C` [Compound 33-326, 4-Amino-2-(4-chloro-3-dimethylamino-2-fluorophenyl)-5-ethenyl-6-(2-methylpropoxy) carbonyl-pyrimidine], for which the pest or weed control at 1000 g/ha in assay [1] is 20%; in assay [2], 60%; in assay [3], 40%; in [4], 10%; in the assay with Setaria faberi (SETFA) [5], 20%; in the assay with Solanum nigrum (SOLNI) [6], 60%. In addition, the pest or weed control at 1000 g/ha came out at 20% in assay [7]; 100% in assay [8]; 80% in assay [9]; 50% in assay [10]; 40% in the assay on Setaria faberi (SETFA) [11]; 90% with Solanum nigrum (SOLNI) [12].
Turning to `C=Cc1c(N)nc(-c2ccc(Cl)c(N(C)C)c2F)nc1C(=O)OCc1ccccc1` [Compound 33-336, 4-Amino-2-(4-chloro-3-dimethylamino-2-fluorophenyl)-5-ethenyl-6-phenylmethoxy-carbonyl-pyrimidine], the pest or weed control at 1000 g/ha in assay [1] stood at 70%; in assay [2], 100%; in assay [3], 90%; in assay [4], 20%; in the assay with Setaria faberi (SETFA) [5], 80%; with Solanum nigrum (SOLNI) [6], 80%. Moreover, the pest or weed control at 1000 g/ha in [7] was 90%; in assay [8], 100%; in assay [9], 90%; in assay [10], 40%; with Setaria faberi (SETFA) [11], 90%; with Solanum nigrum (SOLNI) [12], 90%.
Turning to `C/C=C\c1c(N)nc(-c2ccc(Cl)c(OC)c2F)nc1C(=O)OC` [27-62 (Z)], in assay [1], the “Percentage damage ALOMY, pre-emergence” value came out at 80%. Moreover, in assay [2], the “Percentage damage AMARE, pre-emergence” value is given as 100%. Also, the “Percentage damage ECHCG, pre-emergence” value in assay [3] worked out at 90%. For the same compound, the “Percentage damage IPOHE, pre-emergence” value in assay [4] was 100%. Besides, the “Percentage damage SETFA, pre-emergence” value with Setaria faberi (SETFA) [5] came to 80%. In addition, the “Percentage damage SOLNI, pre-emergence” value in the assay on Solanum nigrum (SOLNI) [6] turned out to be 100%. Moreover, the “Percentage damage ALOMY, post-emergence” value in assay [7] was 70%. Besides, in assay [8], the “Percentage damage AMARE, post-emergence” value turned out to be 100%. Besides, the “Percentage damage ECHCG, post-emergence” value in [9] is recorded as 80%. The “Percentage damage IPOHE, post-emergence” value in assay [10] was 100%. Moreover, the “Percentage damage SETFA, post-emergence” value in the assay on Setaria faberi (SETFA) [11] turned out to be 90%. Also, the “Percentage damage SOLNI, post-emergence” value in the assay with Solanum nigrum (SOLNI) [12] was determined as 80%.
As to `C=Cc1c(N)nc(-c2ccc(C(F)(F)F)cc2)nc1C(=O)OC` [Compound 31-61, 4-Amino-5-ethenyl-6-methoxycarbonyl-2-(4-trifluoromethyl-phenyl)-pyrimidine], the pest or weed control at 1000 g/ha in assay [1] turned out to be 0%; in assay [2], 10%; in [3] it was 0%; in assay [4], 0%; with Setaria faberi (SETFA) [5] it was 0%; in the assay on Solanum nigrum (SOLNI) [6], 0%. Also, the pest or weed control at 1000 g/ha in [7] stood at 20%; in assay [8] it was 70%; in assay [9], 0%; in assay [10], 10%; in the assay with Setaria faberi (SETFA) [11] it was 0%; in the assay with Solanum nigrum (SOLNI) [12], 70%.
For `Cc1c(Cl)nc(C2CC2)nc1OCC(=O)O` [Compound 2-375, (4-chloro-2-cyclopropyl-5-methyl-pyrimidin-6-yloxy)-acetic acid], the pest or weed control at 1000 g/ha stood at 0% in [1]; 0% in assay [2]; 0% in assay [3]; 20% in [4]; 0% in the assay with Setaria faberi (SETFA) [5]; 0% in the assay on Solanum nigrum (SOLNI) [6]. For the same compound, the pest or weed control at 1000 g/ha in [7] was determined as 0%; in [8] it was 10%; in [9] it was 0%; in assay [10], 20%; in the assay on Setaria faberi (SETFA) [11], 0%; in the assay with Solanum nigrum (SOLNI) [12], 10%.
Regarding `C=Cc1c(N)nc(-c2ccc(F)c(Cl)c2)nc1C(=O)OC` [Compound 44-61, 4-Amino-2-(3-chloro-4-fluorophenyl)-5-ethenyl-6-methoxycarbonyl-pyrimidine], the pest or weed control at 1000 g/ha in assay [1] was found to be 20%; in [2], 50%; in assay [3] it was 40%; in assay [4], 10%; with Setaria faberi (SETFA) [5], 30%; with Solanum nigrum (SOLNI) [6], 40%. In addition, the pest or weed control at 1000 g/ha in assay [7] was 40%; in [8], 100%; in assay [9], 50%; in assay [10], 30%; in the assay on Setaria faberi (SETFA) [11], 60%; in the assay with Solanum nigrum (SOLNI) [12], 90%.

For the origin of these results see patent US20120053053A1, “PYRIMIDINE DERIVATIVES AND THEIR USE AS HERBICIDES” (SYNGENTA CROP PROTECTION, LLC, priority 2009, published 2012).
